According to ChEMBL document CHEMBL1154825, “Schweinfurthins I and J from Macaranga schweinfurthii” (2010):

Columns and labels:
Format in all cases: functional
EKVX = assay: Growth inhibition of human EKVX cells; settings: for TGI: read-out: pTGI (converted)
TK-10 = assay: Growth inhibition of human TK10 cells; settings: for TGI: read-out: pTGI (converted)
KM12 = assay: Growth inhibition of human KM12 cells; settings: for TGI: read-out: pTGI (converted)
A498 = assay: Growth inhibition of human A498 cells; settings: for TGI: read-out: pTGI (converted)
SNB-19 = assay: Growth inhibition of human SNB19 cells; settings: for TGI: read-out: pTGI (converted)
SR = assay: Growth inhibition of human SR cells; settings: for TGI: read-out: pTGI (converted)
MOLT-4 = assay: Growth inhibition of human MOLT4 cells; settings: for TGI: read-out: pTGI (converted)
NCI/ADR-RES = assay: Growth inhibition of human NCI/ADR-RES cells; settings: for CC50: read-out: pLC50 (the source's name) (converted); for TGI: read-out: pTGI (converted)
BT-549 = assay: Growth inhibition of human BT549 cells; settings: for TGI: read-out: pTGI (converted)
T47D = assay: Growth inhibition of human T47D cells; settings: for TGI: read-out: pTGI (converted)
COLO 205 = assay: Growth inhibition of human COLO205 cells; settings: for TGI: read-out: pTGI (converted)
OVCAR-5 = assay: Growth inhibition of human OVCAR5 cells; settings: for TGI: read-out: pTGI (converted)
SF-295 = assay: Growth inhibition of human SF295 cells; settings: for TGI: read-out: pTGI (converted)
M14 = assay: Growth inhibition of human M14 cells; settings: for CC50: read-out: pLC50 (the source's name) (converted); for TGI: read-out: pTGI (converted)
SW-620 = assay: Growth inhibition of human SW620 cells; settings: for TGI: read-out: pTGI (converted)
OVCAR-4 = assay: Growth inhibition of human OVCAR4 cells; settings: for CC50: read-out: pLC50 (the source's name) (converted); for TGI: read-out: pTGI (converted)
SF-268 = assay: Growth inhibition of human SF268 cells; settings: for TGI: read-out: pTGI (converted)

CC(C)=CCC/C(C)=C/Cc1cc(/C=C/c2cc(O)cc(O)c2)ccc1O [SCHWEINFURTHIN I]
GI50 (EKVX): 10.5 µM
LC50 (EKVX): 50.1 µM
TGI (EKVX): 22.9 µM
GI50 (TK-10): 14.8 µM
LC50 (TK-10): 56.2 µM
TGI (TK-10): 28.8 µM
GI50 (KM12): 7.08 µM
LC50 (KM12): 49 µM
TGI (KM12): 20.4 µM
GI50 (A498): 5.01 µM
LC50 (A498): 47.9 µM
TGI (A498): 20.4 µM
GI50 (SNB-19): 12.6 µM
LC50 (SNB-19): 56.2 µM
TGI (SNB-19): 26.9 µM
GI50 (SR): 11.2 µM
LC50 (SR): > 100 µM
TGI (SR): 43.7 µM
GI50 (MOLT-4): 7.24 µM
LC50 (MOLT-4): > 100 µM
TGI (MOLT-4): 30.2 µM
GI50 (NCI/ADR-RES): 9.33 µM
CC50 (NCI/ADR-RES): 58.9 µM
TGI (NCI/ADR-RES): 24 µM
GI50 (BT-549): 7.41 µM
LC50 (BT-549): 45.7 µM
TGI (BT-549): 20 µM
GI50 (T47D): 10.2 µM
LC50 (T47D): 81.3 µM
TGI (T47D): 28.8 µM
GI50 (COLO 205): 18.2 µM
LC50 (COLO 205): 64.6 µM
TGI (COLO 205): 34.7 µM
GI50 (OVCAR-5): 17.4 µM
LC50 (OVCAR-5): 72.4 µM
TGI (OVCAR-5): 35.5 µM
GI50 (SF-295): 0.372 µM
LC50 (SF-295): 51.3 µM
TGI (SF-295): 15.8 µM
GI50 (M14): 12.9 µM
CC50 (M14): 53.7 µM
TGI (M14): 26.3 µM
GI50 (SW-620): 15.8 µM
LC50 (SW-620): > 100 µM
TGI (SW-620): 43.7 µM
GI50 (OVCAR-4): 10 µM
CC50 (OVCAR-4): 50.1 µM
TGI (OVCAR-4): 22.4 µM
GI50 (SF-268): 8.71 µM
LC50 (SF-268): 51.3 µM
TGI (SF-268): 21.9 µM

CC(C)=CCC/C(C)=C/CC/C(C)=C/Cc1c(O)cc(/C=C/c2ccc(O)cc2)cc1O [SCHWEINFURTHIN J]
GI50 (EKVX): 4.27 µM
LC50 (EKVX): 46.8 µM
TGI (EKVX): 16.6 µM
GI50 (TK-10): 2.63 µM
LC50 (TK-10): 31.6 µM
TGI (TK-10): 9.33 µM
GI50 (KM12): 2.75 µM
LC50 (KM12): 31.6 µM
TGI (KM12): 8.91 µM
GI50 (A498): 2.82 µM
LC50 (A498): 45.7 µM
TGI (A498): 16.6 µM
GI50 (SNB-19): 6.76 µM
LC50 (SNB-19): 46.8 µM
TGI (SNB-19): 19.5 µM
GI50 (SR): 4.27 µM
LC50 (SR): > 100 µM
TGI (SR): 29.5 µM
GI50 (MOLT-4): 4.07 µM
LC50 (MOLT-4): > 100 µM
TGI (MOLT-4): 25.1 µM
GI50 (NCI/ADR-RES): 3.16 µM
CC50 (NCI/ADR-RES): 38.9 µM
TGI (NCI/ADR-RES): 9.77 µM
GI50 (BT-549): 2.57 µM
LC50 (BT-549): 30.9 µM
TGI (BT-549): 8.91 µM
GI50 (T47D): 2.63 µM
LC50 (T47D): 52.5 µM
TGI (T47D): 13.2 µM
GI50 (COLO 205): 6.46 µM
LC50 (COLO 205): 44.7 µM
TGI (COLO 205): 18.6 µM
GI50 (OVCAR-5): 4.47 µM
LC50 (OVCAR-5): 44.7 µM
TGI (OVCAR-5): 15.8 µM
GI50 (SF-295): 2.29 µM
LC50 (SF-295): 45.7 µM
TGI (SF-295): 11.5 µM
GI50 (M14): 2 µM
CC50 (M14): 8.51 µM
TGI (M14): 4.17 µM
GI50 (SW-620): 3.16 µM
LC50 (SW-620): 66.1 µM
TGI (SW-620): 12 µM
GI50 (OVCAR-4): 3.89 µM
CC50 (OVCAR-4): 39.8 µM
TGI (OVCAR-4): 14.8 µM
GI50 (SF-268): 2.63 µM
LC50 (SF-268): 38 µM
TGI (SF-268): 11.5 µM
